Literature values in US20110052686A1, “MODIFIED RELEASE LAMOTRIGINE TABLETS” (RANBAXY LABORATORIES LIMITED, priority 2009, published 2011).

Details: oral administration

SMILES: Nc1nnc(-c2cccc(Cl)c2Cl)c(N)n1 [Lamotrigine, 3,5-diamino-6-(2,3-dichlorophenyl)-1,2,4-triazine]
- effect of food on bioavailability: not affected by food
- first-pass metabolism: negligible first-pass metabolism
- time of peak plasma concentrations following drug administration: 1.4 to 4.8 h
